Here are results for 14 compounds from patent US20220242870A1, “HETEROCYCLE-FUSED PYRIMIDINE DERIVATIVE AND USE THEREOF” (VORONOI Inc., priority 2019, published 2022).

In assay [1] the target is T1, human FLT3-ITD enzyme (Homo sapiens, UniProt P36888).
T1 sequence (P36888 1-993): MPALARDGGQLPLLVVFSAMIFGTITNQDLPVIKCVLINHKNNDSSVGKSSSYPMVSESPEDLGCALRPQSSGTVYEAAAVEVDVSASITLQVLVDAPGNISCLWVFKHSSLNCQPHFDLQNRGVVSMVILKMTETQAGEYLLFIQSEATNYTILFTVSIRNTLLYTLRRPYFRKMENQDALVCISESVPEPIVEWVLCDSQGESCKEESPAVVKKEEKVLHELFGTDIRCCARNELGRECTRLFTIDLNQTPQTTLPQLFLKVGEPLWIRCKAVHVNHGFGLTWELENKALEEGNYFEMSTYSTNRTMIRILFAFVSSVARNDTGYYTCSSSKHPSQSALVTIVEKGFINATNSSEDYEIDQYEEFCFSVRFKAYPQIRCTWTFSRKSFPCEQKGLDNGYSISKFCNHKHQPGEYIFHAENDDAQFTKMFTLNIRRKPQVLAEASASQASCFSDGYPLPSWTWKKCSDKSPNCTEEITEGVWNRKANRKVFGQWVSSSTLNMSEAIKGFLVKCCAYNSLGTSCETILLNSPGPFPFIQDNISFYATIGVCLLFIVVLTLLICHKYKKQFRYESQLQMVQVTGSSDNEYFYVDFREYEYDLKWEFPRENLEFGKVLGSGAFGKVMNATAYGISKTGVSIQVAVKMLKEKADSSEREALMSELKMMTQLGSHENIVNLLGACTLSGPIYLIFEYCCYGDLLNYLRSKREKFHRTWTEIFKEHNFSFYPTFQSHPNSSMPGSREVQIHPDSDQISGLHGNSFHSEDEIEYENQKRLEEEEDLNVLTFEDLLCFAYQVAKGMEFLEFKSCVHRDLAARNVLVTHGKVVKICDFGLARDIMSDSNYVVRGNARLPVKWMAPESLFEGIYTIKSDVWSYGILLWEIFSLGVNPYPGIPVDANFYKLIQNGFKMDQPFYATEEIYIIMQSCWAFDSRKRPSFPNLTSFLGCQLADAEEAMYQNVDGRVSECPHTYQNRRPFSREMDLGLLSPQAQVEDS
Put plainly: FLT3 enzyme inhibitory ability (ADP-Glo kinase assay). The class given is biochemical. As to conditions: human FLT3-ITD enzyme 10 ng, ATP 10 μM, 25° C. 1 hour. In a few lines: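 Purified human FLT3-ITD (10 ng) with 10 μM ATP and specific substrate in 40 mM Tris-HCl pH 7.4, 20 mM MgCl2, 0.5 mg/mL BSA, 50 μM DTT, 1 h at 25 °C. ADP formation read by ADP-Glo luminescence; IC50 (nM) versus solvent-treated control.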

Assay [2] deals with T2, human GST-HPK1 (1-346) (Homo sapiens, UniProt Q92918).
T2 construct: purified human GST-HPK1 (1-346, Signalchem) enzyme; purchased Signalchem
T2 sequence (Q92918 1-346): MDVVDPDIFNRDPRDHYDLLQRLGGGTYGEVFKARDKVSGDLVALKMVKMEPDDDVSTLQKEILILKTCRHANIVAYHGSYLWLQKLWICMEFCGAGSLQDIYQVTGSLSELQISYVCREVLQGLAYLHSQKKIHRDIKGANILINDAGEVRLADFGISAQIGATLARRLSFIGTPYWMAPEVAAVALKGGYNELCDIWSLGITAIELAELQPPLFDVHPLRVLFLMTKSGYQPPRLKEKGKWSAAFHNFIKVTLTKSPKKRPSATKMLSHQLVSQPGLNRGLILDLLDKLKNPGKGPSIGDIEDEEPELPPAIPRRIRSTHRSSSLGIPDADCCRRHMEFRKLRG
The assay is described as follows: HPK1 enzyme inhibitory ability (ADP-Glo kinase assay). The class given is biochemical. As to conditions: human GST-HPK1 3 ng, ATP 3 uM, 25° C. 2 hours. In a few lines:
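Human GST-HPK1(1-346), 3 ng, reacted with 3 uM ATP and specific substrate in 40 mM Tris-HCl pH 7.4, 20 mM MgCl2, 0.5 mg/mL BSA, 50 uM DTT for 2 h at 25° C. ADP-Glo luminescence read; IC50 (nM) relative to untreated solvent control.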
Background: In ADP-Glo the light output rises with the ADP produced.

The subject of assay [3] is MV4-11 cells. The assay is described as follows: AML cell proliferation inhibitory activity (CellTiter-Glo). As to conditions: Homo sapiens, 72 hours. The class given is cell-based. As for the experimental part:
The inhibitory activities of the example compounds according to the present invention on the proliferation of acute myeloid leukemia (AML) cells expressing the FLT3 mutant gene were evaluated. Specifically, RS4;11 and MV4-11 cells as acute myeloid leukemia cells expressing the FLT3 mutant gene were cultured in RPMI-1640 (Invitrogen) adding 10% FBS. The cells were seeded into each well of a clear bottom white 96-well plate (Corning) at 3000 to 5000 cells 24 hours before compound treatment. The compound was diluted in DMSO (diluted each three-fold, to a total of 12 concentrations) and injected at 0.5 μL each so as to be a final concentration of 0.3 nM to 50 μM. After 72 hours of the compound treatment, they were treated with CellTiter-Glo Luminescent Cell Viability assay (Promega) and stored at room temperature for 10 minutes, and luminescence intensities were measured with a reader (SynergyNeo, Biotek) to count viable cells. Each experiment was performed three times repeatedly. The result values were calculated as the cell growth rate (%) compared to the control treated with the solvent. The graph was derived using the GraphPad Prism program (version 5.0), the GI50 (nM) values were calculated, and the results were shown in Table 3 below.
Background: ATP-based viability assays read luminescence as a measure of living cells.

The test system of assay [4] is MCF-7 cells. The assay is described as follows: Breast cancer cell line proliferation inhibitory activity (CellTiter-Glo 2.0). The class given is cell-based. The following applies: Homo sapiens, MCF7, 120 hours. In a few lines:
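MCF-7 cells exposed to a 12-point, 3-fold dilution series (final 0.00005–10 μM) for 120 h at 37 °C. Viability read by CellTiter-Glo 2.0 luminescence, expressed as percent of vehicle-treated cells. GI50 (nM) derived from the curves.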

A word on the IC50: it is the midpoint of a concentration-inhibition curve. Broadly, the GI50 is the concentration that inhibits growth by half. Take `CN1CCN(c2ccc(Nc3nc(N4N=CCC4c4ccccc4)c4sccc4n3)cc2)CC1` (stereo not shown) [Example 1, N-(4-(4-methylpiperazin-1-yl)phenyl)-4-(5-phenyl-4,5-dihydro-1H-pyrazol-1-yl)thieno[3,2-d]pyrimidin-2-amine]: the values for the IC50 in assay [1] and in assay [2] were 250 to 500 nM and more than 500 nM, respectively. Further, the GI50 in assay [3] and in assay [4] was more than 500 nM throughout.
With `COc1cc(N2CCN(C)CC2)ccc1Nc1nc(N2N=CCC2c2ccccc2)c2sccc2n1` (stereo not shown) [Example 6, N-(2-methoxy-4-(4-methylpiperazin-1-yl)phenyl)-4-(5-phenyl-4,5-dihydro-1H-pyrazol-1-yl)thieno[3,2-d]pyrimidin-2-amine], the IC50 in assay [1] and in assay [2] was more than 500 nM throughout. The GI50 in assay [3] and in assay [4] was more than 500 nM in each case.
Consider `COc1cc(Nc2nc(N3N=CCC3c3ccccc3)c3sccc3n2)ccc1N1CCC(N2CCN(C)CC2)CC1` (stereo not shown) [Example 8, N-(3-methoxy-4-(4-(4-methylpiperazin-1-yl)piperidin-1-yl)phenyl)-4-(5-phenyl-4,5-dihydro-1H-pyrazol-1-yl)thieno[3,2-d]pyrimidin-2-amine], for which the IC50 in assay [1] and in assay [2] was more than 500 nM in each case. Further, the GI50 in assay [3] is not below 250 nM; in assay [4], more than 500 nM.
Regarding `CCc1cc(Nc2nc(N3N=CCC3c3ccccc3)c3sccc3n2)cc(OCCN2CCC(O)CC2)c1` (stereo not shown) [Example 16, 1-(2-(3-ethyl-5-((4-(5-phenyl-4,5-dihydro-1H-pyrazol-1-yl)thieno[3,2-d]pyrimidin-2-yl)amino)phenoxy)ethyl)piperidin-4-ol], the IC50 in assay [1] and in assay [2] was more than 500 nM in each case. Also, the GI50 in assay [3] and in assay [4] was more than 500 nM each time.
In assay [1], `COc1cc(Nc2nc(N3N=CCC3c3ccccc3)c3sccc3n2)ccc1C(=O)NC1CCN(C)CC1` (stereo not shown) [Example 52, 2-methoxy-N-(1-methylpiperidin-4-yl)-4-((4-(5-phenyl-4,5-dihydro-1H-pyrazol-1-yl)thieno[3,2-d]pyrimidin-2-yl)amino)benzamide] yielded an IC50 of more than 500 nM. In assay [3], the GI50 is not below 250 nM.
On to `COc1cc(Nc2nc(N3OCC[C@H]3c3ccccc3)c3sccc3n2)ccc1N1CCC(N2CCN(C)CC2)CC1` [Example 57, (S)-N-(3-methoxy-4-(4-(4-methylpiperazin-1-yl)piperidin-1-yl)phenyl)-4-(3-phenylisoxazolidin-2-yl)thieno[3,2-d]pyrimidin-2-amine], for which the IC50 in assay [1] is 250 to 500 nM; in assay [2], more than 500 nM. Besides, the GI50 in assay [3] and in assay [4] was more than 500 nM throughout.
For `CN1CCN(c2ccc(Nc3nc(N4OCC[C@H]4c4ccccc4)c4sccc4n3)cc2)CC1` [Example 59, (S)-N-(4-(4-methylpiperazin-1-yl)phenyl)-4-(3-phenylisoxazolidin-2-yl)thieno[3,2-d]pyrimidin-2-amine], the IC50 in assay [1] was not below 250 nM; in assay [2], more than 500 nM. The GI50 in assay [3] and in assay [4] was more than 500 nM each time.
Consider `COc1cc(Nc2nc(N3N=CCC3c3ccccc3)c3cc[nH]c3n2)ccc1N1CCC(N2CCN(C)CC2)CC1` (stereo not shown) [Example 69, N-(3-methoxy-4-(4-(4-methylpiperazin-1-yl)piperidin-1-yl)phenyl)-4-(5-phenyl-4,5-dihydro-1H-pyrazol-1-yl)-7H-pyrrolo[2,3-d]pyrimidin-2-amine], for which the IC50 was 250 to 500 nM in assay [1] and more than 500 nM in assay [2]. The GI50 in assay [3] and in assay [4] was more than 500 nM throughout.
Turning to `COc1cccc([C@@H]2CCON2c2nc(Nc3ccc(N4CCN(C)CC4)cc3)nc3[nH]ccc23)c1` [Example 75, (S)-4-(3-(3-methoxyphenyl)isoxazolidin-2-yl)-N-(4-(4-methylpiperazin-1-yl)phenyl)-7H-pyrrolo[2,3-d]pyrimidin-2-amine], the IC50 in assay [1] is 250 to 500 nM; in assay [2], more than 500 nM. Moreover, the GI50 in assay [3] and in assay [4] was more than 500 nM in each case.
`CN1CCN(c2ccc(Nc3nc(N4OCC[C@H]4c4cccc(F)c4)c4cc[nH]c4n3)cc2)CC1` [Example 76, (S)-4-(3-(3-fluorophenyl)isoxazolidin-2-yl)-N-(4-(4-methylpiperazin-1-yl)phenyl)-7H-pyrrolo[2,3-d]pyrimidin-2-amine]: the IC50 in assay [1] and in assay [2] was not below 250 nM in each case. Besides, the GI50 in assay [3] and in assay [4] was more than 500 nM each time.
For the compound `CN1CCN(c2ccc(Nc3nc(N4OCC[C@H]4c4cccs4)c4cc[nH]c4n3)cc2)CC1` [Example 77, (S)-N-(4-(4-methylpiperazin-1-yl)phenyl)-4-(3-(thiophen-2-yl)isoxazolidin-2-yl)-7H-pyrrolo[2,3-d]pyrimidin-2-amine], the IC50 in assay [1] and in assay [2] was not below 250 nM in each case. The values for the GI50 in assay [3] and in assay [4] were 250 to 500 nM and more than 500 nM, respectively.
Regarding `CN1CCN(c2ccc(Nc3nc(N4OCC[C@H]4c4cccnc4)c4cc[nH]c4n3)cc2)CC1` [Example 78, (S)-N-(4-(4-methylpiperazin-1-yl)phenyl)-4-(3-(pyridin-3-yl)isoxazolidin-2-yl)-7H-pyrrolo[2,3-d]pyrimidin-2-amine], the IC50 in assay [1] and in assay [2] was not below 250 nM throughout. Besides, the GI50 in assay [3] and in assay [4] was more than 500 nM each time.
`CN(C)C1CCN(c2ccc(Nc3nc(N4OCC[C@H]4c4ccccc4)c4cc[nH]c4n3)cc2)CC1` [Example 83, (S)-N-(4-(4-(dimethylamino)piperidin-1-yl)phenyl)-4-(3-phenylisoxazolidin-2-yl)-7H-pyrrolo[2,3-d]pyrimidin-2-amine]: the IC50 in assay [1] and in assay [2] was not below 250 nM each time. In addition, the GI50 was not below 250 nM in assay [3] and more than 500 nM in assay [4].
`COc1cc(Nc2nc(N3OCC[C@@H]3c3ccccc3)c3cc[nH]c3n2)ccc1N1CCC(N2CCN(C)CC2)CC1` [Example 129, (R)-N-(3-methoxy-4-(4-(4-methylpiperazin-1-yl)piperidin-1-yl)phenyl)-4-(3-phenylisoxazolidin-2-yl)-7H-pyrrolo[2,3-d]pyrimidin-2-amine] yielded an IC50 in assay [1] of more than 500 nM. The GI50 in assay [3] was 250 to 500 nM.
